These results are taken from patent US20110217337A1, “BIOACTIVE AGENT FOR BONE TISSUE ENGINEERING” (UNIVERSITY OF CONNECTICUT, priority 2010, published 2011).

Data set [1] has as its system MC3T3E1 cells. The data set is described as follows: Cell adhesion on PLAGA matrices (crystal violet stain). It is filed as cell-based. The settings on record: 100 μM vs untreated, adhesion for at least 1 h. The procedure:
FIG. 2. Effects of 6-Bnz-cAMP on cell adhesion in MC3T3E1 on PLAGA matrices. Cells were treated with 100 μM 6-Bnz-cAMP or untreated. Cells were allowed to adhere for at least 1 h, and nonadherent cells were removed by washing with phosphate buffer saline (PBS). The adhered cells were stained with crystal violet solution for 15 minutes at room temperature and the absorbed stain dye was then solubilized in 1% SDS solution. The amount of dye taken up by the cells was measured in a spectrophotometer. The plots shown are representative of two independent experiments, each done in triplicate (n=3). Error bars represent SD.
For these experiments, the polymer component of the scaffold, poly(lactic-co-glycolide) (PLAGA) was selected because of its documented degradability and biocompatibility.
More specifically, thin film discs of poly(lactic-co-glycolide) (PLAGA) were fabricated using a traditional solvent-casting method. In this process, the polymer was first dissolved in methylene chloride, then poured into a Teflon-coated dish. The dishes were then placed in a −20° C. freezer to allow solvent evaporation. […]
Adhesion: In the cell adhesion study presented in FIG. 2 cells were allowed to adhere for at least 1 h, and nonadherent cells were removed by washing with phosphate buffer saline (PBS). […] The amount of dye taken up by the cells was measured in a spectrophotometer.

The test system of data set [2] is MC3T3-E1 cells. The data set is described as follows: Trypan blue viability assay. The format is cell-based. The settings on record: 100 micromolar, days 7, 14 and 21. The procedure:
FIG. 7. MC3T3-E1 cell viability of cells treated with 6-Bnz-cAMP compared to untreated cells. Cell viability was measured by trypan blue viability stain.
Viability: Cell viability is determined using a trypan blue viability assay. For trypan blue viability assay method, at day 7, 14, and 21, cells were collected by trypsinization and stained with trypan blue dye (MP Biochemicals LLC, Solon, Ohio). The cells were then numbered in a hemacytometer (Hausser Scientific, Horsham, Pa.) under a light microscopy (Olympus Corporation, Tokyo, Japan). Cell stained blue was scored a dead cell, while unstained cell was scored a live cell. The results are presented in % of viability.
MC3T3-E1 cells were grown in mineralization media. 6-Bnz-cAMP was added to the culture medium to a final concentration of 100 μM for experiments; mineralization media only was used for positive controls. Osteoblast-associated markers were quantitated at days 7 and 14. Markers include increased alkaline phosphatas (ALP) activity (FIG. 5) and calcium precipitation in MC3T3-E1 cells (FIG. 6). 6-Bnz-cAMP toxicity was assessed at days 7, 14, and 21 in cells treated with 100 micromolar 6-Bnz-cAMP compared to untreated cells. Trypan blue staining was used to visualize cells (FIG. 7).

Data set [3] has as its system rat mesenchymal stem cells. The data set is described as follows: Proliferation of mesenchymal stem cells seeded on PLAGA scaffolds, PicoGreen dsDNA assay. The format is cell-based. The settings on record: each time point, day 7 to day 21. The procedure: FIG. 8. Effect of 6-Bnz-cAMP on the proliferation of rat mesenchymal stem cells seeded on PLAGA scaffolds. Cell proliferation was assessed by PicoGreen dsDNA assay.
Evaluation of the in vitro cellular behaviors of rabbit MSC on the 6-Bnz-cAMP loaded PLAGA microsphere based scaffold: For in vitro studies, cells are plated onto the 6-Bnz-cAMP loaded and unloaded control scaffolds. Cell adhesion is determined at 1, 3, 6 and 24 hours. Cell proliferation levels are determined at Day 3, 7, and 14 (FIG. 8). Cell differentiation and mineralization are determined at Day 7, 14, 21, and 28. At the pre-determined times, scaffolds will be removed from the medium and unattached cells are removed by washing with PBS 4 times. The in vitro assays are performed on the attached cells according to the procedures described above in Example 3.

In data set [4] the test system is rat mesenchymal stem cells. The data set is described as follows: ALP activity in mesenchymal stem cells. Particulars: vs untreated control; day 7. The format is cell-based. The procedure: FIG. 10. ALP activity in untreated (control) rat mesenchymal stem cells and cells treated with BMP-2 or 6-Bnz-cAMP. A-BMP-2 peptide; E-6-Bnz-cAMP; F-Control. […] ALP activities of mesenchymal stem cells were induced by 6-Bnz-cAMP at day 7.
Cell adhesion, proliferation, and differentiation studies: Rabbit MSCs are plated onto PLAGA matrices at a plating density of 1×10^4 cells/cm^2 and cultured in standard basal medium. Four experimental groups are tested: (1) untreated cells, (2) 6-Bnz-cAMP treated cells, (3) BMP-2 treated cells, and (4) 6-Bnz-cAMP and BMP-2 treated cells. […] Initial cell adhesion is determined at 1 h, 3 h, 12 h, and 24 h. Cell proliferation and cell differentiation are determined at 1, 7, 14, and 21 days. Calcium deposition and ALP activity is also measured at days 3, 7, 14, and 21 in untreated cells compared to cells treated with BMP-2 or 6-Bnz-cAMP (FIGS. 9 and 10). […] For the cell adhesion assay, attached cells are quantified by crystal violet stain, a method routinely used to measure the initial cell adhesion. Cell proliferation is measured using a commercially available proliferation assay kit, MTS (Promega). For alkaline phosphatase (ALP) activity, the early markers of osteoblast differentiation are determined with a commercially availia ALP assay kit (Bio-rad). […]

Data set [5] concerns Epac-Rap1 pathway. The settings on record: unlike cAMP; cited from earlier work.
For data set [6] the following is noted: designed to resist enzymatic degradation in vivo; cited from earlier work.

Regarding `O=C(Nc1ncnc2c1ncn2C1O[C@@H]2COP(=O)([O-])O[C@H]2[C@H]1O)c1ccccc1.[Na+]` (stereo partly drawn) [6-Bnz-cAMP, N^6-Benzoyladenosine-3′,5′-cyclic monophosphate], the initial cell adhesion entry in data set [1] is “enhances the initial cell adhesion”. For the same molecule, the “cell viability vs untreated cells” value in data set [2] is given as “No significant differences”. In data set [3], the “cell proliferation vs untreated control” value is recorded as “No significant differences”. Also, the ALP activity result in data set [4] is given as “increases ALP activity”. Moreover, in data set [5], the “activation of the Epac-Rap1 pathway” value is recorded as “does not activate”. Besides, the half-life result in data set [6] is on record as “long half-life”.
